Test results as given in patent US7572923B2, “Indirubin derivatives having anticancer property against human cancer cell line” (Anygen Co., Ltd., priority 2004, dated 2009).

Assays:
[1] = test system: leukemia cell line (HL-60); assay: Differentiation inducing effect, NBT reduction method; assay type: cell-based, human; settings: 3 days
Protocol: For measuring the differentiation inducing effect to acute bone merrow leukemia cell line (HL-60) by indirubin AGM compound, NBT (nitroblue tetrazolium) reduction reaction method is employed. The leukemia cell line is diluted into 2×10^5 cfu/ml. […] Incubated cells are washed with phosphate buffered saline (PBS). Then, they are further incubated in PBS solution containing 0.1% NBT and 200 ng/ml of PMA (phorbol 12-myristate 13-acetate) for 30 minutes at 37° C. Incubated cells are centrifuged and collected cells are washed with PBS solution. Using cell number counter, differentiated cells forming nitroblue formazan among total cells are counted.

[2] = test system: human lung cancer cell line (A549); assay: Inhibition of cancer cell line proliferation, A549; assay type: cell-based; settings: 96 h, 3˜4 days incubation, absorbance at 515 nm
Protocol: (§1) For measuring the proliferation inhibition by indirubin compound, the method disclosed in K. Likhitwitayawuid et al. Journal. Nat. Prod. […] Followings are simple description of this method. The cancer cell line is diluted into 5×10^4 cfu/ml. Then, various concentrations of test compounds are added to 96 well microtiter plate containing diluted cell line. After incubating test plate for 3˜4 days at 37° C., the test plate is dried and Tris-base is added. Then, using ELISA plate detector, the absorbance at 515 nm is measured. IC50 is measured by non-linear regression method.

[3] = test system: human leukemia cell line (HL-60); assay: Differentiation with low concentration 1,25-(OH)2D3 or ATRA, NBT reduction method; assay type: cell-based; settings: for % of Differentiation, 1,25-(OH)2D3: 1 μM compound with 5 nM of 1,25-(OH)2D3; for % of Differentiation, all-trans RA: 1 μM compound with 50 nM of ATRA
Protocol: For measuring the differentiation inducing effect to acute bone merrow leukemia cell line (HL-60) by indirubin AGM compound, NBT (nitroblue tetrazolium) reduction reaction method is employed. The leukemia cell line is diluted into 2×10^5 cfu/ml. After treating 20 μM and 1 μM concentrations of test compounds, test plate is incubated for 3 days at 37° C. in 5% CO2 incubator. Incubated cells are washed with phosphate buffered saline (PBS). Then, they are further incubated in PBS solution containing 0.1% NBT and 200 ng/ml of PMA (phorbol 12-myristate 13-acetate) for 30 minutes at 37° C. Incubated cells are centrifuged and collected cells are washed with PBS solution. Using cell number counter, differentiated cells forming nitroblue formazan among total cells are counted.
Next, we test if AGM compound of present invention can synergically induce the differentiation of acute bone merrow leukemia cell line when it is treated with low concentration of 1,25-dihydroxyvitamin D3[1,25-(OH)2D3] or all-trans retinoic acid (ATRA) known as differentiation inducing agent. […] […] As a positive control, conventional differentiation inducing agent is used.

[4] = test system: human abdominal cavity cancer cell line (HT 1080); assay: Inhibition of cancer cell line proliferation, HT 1080; assay type: cell-based; settings: HT-1080, 96 h, HT108, 3˜4 days incubation, absorbance at 515 nm
Protocol: as §1

[5] = test system: human colon cancer cell line (Col2); assay: Inhibition of cancer cell line proliferation, Col2; assay type: cell-based; settings: 96 h, 3˜4 days incubation, absorbance at 515 nm
Protocol: as §1

[6] = test system: human stomach cancer cell line (SNU-638); assay: Inhibition of cancer cell line proliferation, SNU-638; assay type: cell-based; settings: 96 h, 3˜4 days incubation, absorbance at 515 nm
Protocol: as §1

[7] = test system: human leukemia cell line (HL-60); assay: Inhibition of cancer cell line proliferation, HL-60; assay type: cell-based; settings: HL-60, 96 h, HL60, 3˜4 days incubation, absorbance at 515 nm
Protocol: as §1

[8] = test system: human cell line (HT 1080); assay: Inhibition of cancer cell line proliferation, HT 1080; assay type: cell-based; settings: HT-1080, 96 h, read-out: IC50 HT108
Protocol: as §1

O=C1Nc2ccccc2C1=C1Nc2ccccc2C1=O [AGM001, 1H,1′H-[2,3′] biindolylidene-3,2′-dione]
% of Differentiation ([1]; 1 μM compound): 7.76 ± 3.42%
% of Differentiation ([1]; 20 μM compound): 10.00 ± 0.27%
IC50 [2]: 31 µM
% of Differentiation, 1,25-(OH)2D3 [3]: 28.36 ± 0.15%
% of Differentiation, all-trans RA [3]: 39.61 ± 1.25%
IC50 [4]: 42.2 µM
IC50 [5]: > 100 µM
IC50 [6]: > 100 µM

O=C1Nc2ccccc2C1=C1Nc2ccccc2C1=NO [AGM002, 1H,1′H-[2,3′] biindolylidene-3,2′-dione 3-oxime]
% of Differentiation ([1]; 1 μM compound): 11.12 ± 0.31%
% of Differentiation ([1]; 20 μM compound): 6.78 ± 0.40%
IC50 [2]: 62 µM
% of Differentiation, 1,25-(OH)2D3 [3]: 24.52 ± 2.67%
% of Differentiation, all-trans RA [3]: 37.78 ± 1.06%
IC50 [4]: 4.8 µM
IC50 [5]: > 100 µM
IC50 [6]: > 100 µM

O=C1Nc2ccc(OC(F)(F)F)cc2C1=C1Nc2ccccc2C1=O [AGM003]
% of Differentiation ([1]; 1 μM compound): 6.27 ± 1.76%
% of Differentiation ([1]; 20 μM compound): 10.36 ± 0.29%
% of Differentiation, 1,25-(OH)2D3 [3]: 22.04 ± 0.38%
% of Differentiation, all-trans RA [3]: 41.01 ± 1.26%

O=C1Nc2ccc(OC(F)(F)F)cc2C1=C1Nc2ccccc2C1=NO [AGM004]
% of Differentiation ([1]; 1 μM compound): 22.81 ± 2.38%
% of Differentiation, 1,25-(OH)2D3 [3]: 26.36 ± 3.05%
% of Differentiation, all-trans RA [3]: 28.68 ± 0.23%

CC(=O)N1C(=C2C(=O)Nc3ccccc32)C(=O)c2ccccc21 [AGM006, 1-acetyl-1H,1′H-[2,3′] biindolylidene-3,2′-dione]
% of Differentiation ([1]; 1 μM compound): 9.99 ± 1.47%
% of Differentiation ([1]; 20 μM compound): 10.49 ± 0.25%
IC50 [2]: > 100 µM
% of Differentiation, 1,25-(OH)2D3 [3]: 19.60 ± 0.56%
% of Differentiation, all-trans RA [3]: 42.81 ± 1.05%
IC50 [7]: > 100 µM
IC50 [4]: > 100 µM
IC50 [5]: > 100 µM
IC50 [6]: > 100 µM

O=C1Nc2ccc([N+](=O)[O-])cc2C1=C1Nc2ccccc2C1=O [AGM009, 5′-nitro-1H,1′H-[2,3′] biindolylidene-3,2′-dione]
% of Differentiation ([1]; 1 μM compound): 19.94 ± 2.02%
% of Differentiation ([1]; 20 μM compound): 29.26 ± 1.59%
IC50 [2]: > 100 µM
% of Differentiation, 1,25-(OH)2D3 [3]: 48.51 ± 3.49%
% of Differentiation, all-trans RA [3]: 59.32 ± 1.54%
IC50 [7]: > 100 µM
IC50 [4]: > 100 µM
IC50 [5]: > 100 µM
IC50 [6]: > 100 µM

O=C1Nc2ccc(F)cc2C1=C1Nc2ccccc2C1=O [AGM010, 5′-fluoro-1H,1′H-[2,3′] biindolylidene-3,2′-dione]
% of Differentiation ([1]; 1 μM compound): 7.53 ± 1.02%
% of Differentiation ([1]; 20 μM compound): 13.01 ± 0.14%
IC50 [2]: 96.8 µM
% of Differentiation, 1,25-(OH)2D3 [3]: 78.44 ± 6.88%
% of Differentiation, all-trans RA [3]: 75.08 ± 6.80%
IC50 [7]: > 100 µM
IC50 [8]: > 100 µM
IC50 [5]: > 100 µM
IC50 [6]: 40.3 µM

Cc1ccc2c(c1)C(=C1Nc3ccccc3C1=NO)C(=O)N2 [AGM013, 5′-methyl-1H,1′H-[2,3′] biindolylidene-3,2′-dione 3-oxime]
% of Differentiation ([1]; 1 μM compound): 26.22 ± 2.04%
IC50 [2]: 20.4 µM
% of Differentiation, 1,25-(OH)2D3 [3]: 35.49 ± 5.45%
% of Differentiation, all-trans RA [3]: 70.54 ± 2.17%
IC50 [7]: 65.4 µM
IC50 [4]: 36.7 µM
IC50 [5]: > 100 µM
IC50 [6]: 17.6 µM

O=C1Nc2ccc(I)cc2C1=C1Nc2ccccc2C1=NO [AGM015, 5′-iodo-1H,1′H-[2,3′] biindolylidene-3,2′-dione 3-oxime]
% of Differentiation ([1]; 1 μM compound): 30.50 ± 4.97%
IC50 [2]: > 100 µM
% of Differentiation, 1,25-(OH)2D3 [3]: 33.27 ± 0.75%
% of Differentiation, all-trans RA [3]: 67.41 ± 1.36%
IC50 [7]: > 100 µM
IC50 [4]: > 100 µM
IC50 [5]: > 100 µM
IC50 [6]: > 100 µM

Cc1cc(C)c2c(c1)C(=C1Nc3ccccc3C1=NO)C(=O)N2 [AGM016, 5′,7′-dimethyl-1H,1′H-[2,3′] biindolylidene-3,2′-dione 3-oxime]
% of Differentiation ([1]; 1 μM compound): 3.07 ± 1.69%
% of Differentiation ([1]; 20 μM compound): 10.35 ± 0.62%
IC50 [2]: > 100 µM
% of Differentiation, 1,25-(OH)2D3 [3]: 27.24 ± 1.32%
% of Differentiation, all-trans RA [3]: 33.99 ± 0.47%
IC50 [7]: > 100 µM
IC50 [4]: > 100 µM
IC50 [5]: > 100 µM
IC50 [6]: 90.6 µM

O=C1Nc2ccccc2C1=C1Nc2ccc(Br)cc2C1=NO [AGM018, 5-bromo-1H,1′H-[2,3′] biindolylidene-3,2′-dione 3-oxime]
% of Differentiation ([1]; 1 μM compound): 8.69 ± 4.95%
IC50 [2]: 38.6 µM
% of Differentiation, 1,25-(OH)2D3 [3]: 36.52 ± 1.27%
% of Differentiation, all-trans RA [3]: 23.13 ± 0.71%
IC50 [7]: 25 µM
IC50 [4]: 73.6 µM
IC50 [5]: 10.5 µM
IC50 [6]: 32.9 µM

O=C1Nc2ccc(S(=O)(=O)[O-])cc2C1=C1Nc2ccccc2C1=O.[Na+] [AGM019, 3,2′-dioxo-1,3,1′,2′-tetrahydro-[2,3′] biindolylidene-5′-sodium sulfonate]
% of Differentiation ([1]; 1 μM compound): 9.36 ± 0.13%
% of Differentiation ([1]; 20 μM compound): 12.44 ± 1.66%
% of Differentiation, 1,25-(OH)2D3 [3]: 27.66 ± 1.28%
% of Differentiation, all-trans RA [3]: 51.49 ± 0.13%

O=C1Nc2ccc(S(=O)(=O)[O-])cc2C1=C1Nc2ccccc2C1=NO.[Na+] [AGM020, 3-hydroxyimino-2′-oxo-1,3,1′,2′-tetrahydro-[2,3′] biindolylidene-5′-sodium sulfonate]
% of Differentiation ([1]; 1 μM compound): 11.34 ± 2.32%
% of Differentiation ([1]; 20 μM compound): 23.86 ± 1.31%
% of Differentiation, 1,25-(OH)2D3 [3]: 23.34 ± 0.65%
% of Differentiation, all-trans RA [3]: 34.50 ± 2.91%

O=C1Nc2ccccc2C1=C1Nc2ccc(Br)cc2C1=O [AGM021, 5-bromo-1H,1′H-[2,3′] biindolylidene-3,2′-dione]
% of Differentiation ([1]; 1 μM compound): 11.63 ± 3.48%
% of Differentiation ([1]; 20 μM compound): 9.64 ± 0.51%
IC50 [2]: > 100 µM
% of Differentiation, 1,25-(OH)2D3 [3]: 24.64 ± 0.65%
% of Differentiation, all-trans RA [3]: 28.23 ± 0.02%
IC50 [7]: > 100 µM
IC50 [4]: > 100 µM
IC50 [5]: > 100 µM
IC50 [6]: > 100 µM

O=C1Nc2ccc([N+](=O)[O-])cc2C1=C1Nc2ccc(Br)cc2C1=O [AGM022]
% of Differentiation ([1]; 1 μM compound): 18.35 ± 0.02%
% of Differentiation ([1]; 20 μM compound): 22.89 ± 0.51%
% of Differentiation, 1,25-(OH)2D3 [3]: 48.28 ± 0.36%
% of Differentiation, all-trans RA [3]: 51.20 ± 3.70%

Nc1ccc2c(c1)C(=C1Nc3ccccc3C1=NO)C(=O)N2 [AGM031, 5′-amino-1H,1′H-[2,3′] biindolylidene-3,2′-dione-3-oxime]
IC50 [2]: 9.13 µM
IC50 [7]: 13 µM
IC50 [8]: 5.07 µM
IC50 [5]: 24.6 µM
IC50 [6]: 10 µM

O=C1Nc2ccccc2/C1=C1/Nc2ccccc2C1=O [Indirubin]
% of Differentiation ([1]; 1 μM compound): 15.28 ± 1.12%
% of Differentiation ([1]; 20 μM compound): 1.18 ± 0.18%
% of Differentiation, 1,25-(OH)2D3 [3]: 26.39 ± 0.98%
% of Differentiation, all-trans RA [3]: 44.87 ± 2.54%
